Tested on: gene expression in etiolated eto1-4 seedlings
Experiment: Transcriptional profiling (ATH1 GeneChip microarray) of etiolated eto1-4 seedlings
Assay type: in vivo, Arabidopsis thaliana
Conditions: ratio eto1-4 treated to eto1-4 (no treatment)
Protocol: For chemical treatments, seeds were sown on 0.5×MS agar medium supplemented with 10 μM chemicals (AVG, compounds 9393, 9370, and 7303) or DMSO (as control). Arabidopsis seeds were stratified in the dark at 4° C. for 4 days, then germinated in the dark for 3 days at 22° C. Approximately 2,000 etiolated seedlings of the wild type or eto1-4 were used to collect tissues for preparation of total RNA in each microarray experiment with Arabidopsis ATH1 GeneChip (Affymetrix). Extraction of RNA followed an established protocol (Chang, et al. (1993) Plant Mol. Biol. Rep. 11, 113-117). Total RNA (10 μg) was used to prepare biotinylated cRNA for hybridization to ATH1 GeneChip in the experiments disclosed herein. Experiments were repeated by 2 independent biological duplicates, and candidate genes present in both experiments were selected for further analysis. The MASS method was used for data analysis and normalization by all sample medium. Candidate genes were selected by the following criteria. First, genes with 1.5-fold differential expression between the wild type and eto1-4 were selected as the master gene pool, which was then used for comparison in treatments with AVG and individual exemplary compounds. Data were presented in hierarchical clustering and Venn diagram format. Agilent GeneSpring GX and Bioconductor software were used to analyze the expression profile data. Gene Ontology descriptions were generated by GeneSpring GX and further referred to the TAR GO database. Raw data are available in the GEO database (http://www.ncbi.nlm.nih.gov/geo) with Accession no. GSE20897.
The filtered and normalized expression data set from 22810 probes on the ATH1 Genechip was used for hierarchical clustering of gene expression profiles for comparison between AVG and the exemplary invention compounds in eto1-4. It was identified that 1,446 genes show at least 1.5-fold difference in expression between the WT and eto1-4 and used them as the master gene pool for clustering analysis (FIG. 7A). […] These genes likely contribute to the etiolated phenotype of eto1-4 by responding to elevated endogenous ethylene. To determine whether the exemplary compounds have specific r overlapping functions with AVG to suppress the eto1-4 phenotype, genes that are regulated by individual exemplary invention compounds and AVG for Venn diagram analysis were clustered (FIG. 7B). More than 63% of genes (356/561 for compound 9393; 389/561 for compound 9370; 399/561 for compound 7303; FIG. 7B) with expression associated with AVG were co-regulated by the exemplary invention compounds, which indicates an overlap function in suppression of the ethylene phenotype in eto1-4. […] Next genes co-regulated by all of the exemplary invention compounds and AVG were examined by performing a clustering analysis using the co-regulated genes identified in FIG. 7B: 356 (compound 9393 vs AVG), 389 (compound 9370 vs AVG) and 399 genes (compound 7303 vs AVG). It was uncovered that 276 genes were co-regulated by all of the exemplary invention compounds and AVG (FIG. 7C and Table 2). On the basis of GO descriptions generated by Gene Spring GX and TAIR database, the 276 genes were divided into subgroups related to their biological functions (Table 2). […] In addition, stress- and pathogenesis-related genes were among the co-regulated genes, possibly because ethylene is involved in both biotic and abiotic stresses.
Genes (1446 non-redundant loci) were selected by 1.5-fold differential expression between eto1-4 and WT as the master pool for analysis. These genes were used for comparison between chemical treatments by AVG and the exemplary invention compounds. The finalized 276 genes that are co-regulated by AVG and all of the exemplary invention compounds are shown. Locus ID also present in Nemhauser et al. (Nemhauser, et al. (2006) Cell 126, 467-475).

`CC1(C)CC(=O)c2cnc(NC3CCCC3)nc2C1` [Compound 9393] was tested, and the “Signal Fold Change AT3G14850, unknown biological function” value was 0.29, the “Signal Fold Change AT3G15890 protein kinase” value was 1.98 and the “Signal Fold Change AT3G16450 jacalin lectin protein” value was 2.09. The “Signal Fold Change AT3G16470 jacalin lectin protein” value was 4.09, the “Signal Fold Change AT3G16690, unknown biological function” value was 3.33 and the “Signal Fold Change AT3G17680, unknown biological function” value was 0.33. The “Signal Fold Change AT3G20130 cytochrome P450” value was 1.72, the “Signal Fold Change AT3G21770 peroxidase 30” value was 1.57 and the “Signal Fold Change AT3G22620 lipid transfer protein” value was 1.94. The “Signal Fold Change AT3G23150 ethylene receptor, putative (ETR2)” value was 0.15, the “Signal Fold Change AT3G23800, unknown biological function” value was 0.46 and the “Signal Fold Change AT3G24670, unknown biological function” value was 0.32. The “Signal Fold Change AT3G25710 bHLH protein” value was 2.27, the “Signal Fold Change AT3G25730 AP2-containing transcription factor” value was 0.26 and the “Signal Fold Change AT3G25980 mitotic spindle checkpoint protein” value was 2.35. The “Signal Fold Change AT3G27580 protein kinase” value was 0.48, the “Signal Fold Change AT3G28290, unknown biological function” value was 0.29 and the “Signal Fold Change AT3G29250 short-chain dehydrogenase” value was 4.05. The “Signal Fold Change AT3G30775 proline oxidase, mitochondrial” value was 2.13, the “Signal Fold Change AT3G43270 pectinesterase protein” value was 0.26 and the “Signal Fold Change AT3G44820, response to light stimulus, phototropic-responsive NPH3 protein” value was 2.81. For the same molecule, the “Signal Fold Change AT3G44990 endo-xyloglucan transferase” value was 0.28, the “Signal Fold Change AT3G45710 proton-dependent oligopeptide transport (POT) protein” value was 1.98 and the “Signal Fold Change AT3G46130 myb transcription factor (MYB48)” value was 2.63. The “Signal Fold Change AT3G46700 UDP-glucosyl transferase” value was 3.09, the “Signal Fold Change AT3G47210, unknown biological function” value was 2.53 and the “Signal Fold Change AT3G47250, unknown biological function” value was 3.68. The “Signal Fold Change AT3G49780 phytosulfokines 3 (PSK3)” value was 4.97, the “Signal Fold Change AT3G50660 steroid 22-alpha-hydroxylase” value was 4.32 and the “Signal Fold Change AT3G51410, unknown biological function” value was 0.32. For the same molecule, the “Signal Fold Change AT3G51970, unknown biological function” value was 2.49, the “Signal Fold Change AT3G52180 protein tyrosine phosphatase” value was 0.32 and the “Signal Fold Change AT3G52920 expressed protein (defense response)” value was 3.09. The “Signal Fold Change AT3G53540, unknown biological function” value was 0.38, the “Signal Fold Change AT3G56480, unknown biological function” value was 2.21 and the “Signal Fold Change AT3G58710 WRKY transcription factor” value was 2.14. For the same molecule, the “Signal Fold Change AT3G59370, unknown biological function” value was 2.91, the “Signal Fold Change AT3G59710 short-chain dehydrogenase” value was 0.39 and the “Signal Fold Change AT3G59900, unknown biological function” value was 0.43. For the same molecule, the “Signal Fold Change AT3G60520, unknown biological function” value was 0.27, the “Signal Fold Change AT3G61160 shaggy-related protein kinase beta/ASK-beta (ASK2)” value was 3.26 and the “Signal Fold Change AT4G00730 anthocyaninless2” value was 0.55. The “Signal Fold Change AT4G01410, unknown biological function” value was 0.40, the “Signal Fold Change AT4G03140 short-chain dehydrogenase” value was 0.41 and the “Signal Fold Change AT4G08300, unknown biological function” value was 3.06. The “Signal Fold Change AT4G09570 calcium-dependent protein kinase” value was 0.36, the “Signal Fold Change AT4G10910, unknown biological function” value was 4.86 and the “Signal Fold Change AT4G11190 disease resistance-responsive protein” value was 5.56. The “Signal Fold Change AT4G11280 ACC synthase 6” value was 1.87, the “Signal Fold Change AT4G11310 cysteine proteinase” value was 8.01 and the “Signal Fold Change AT4G12080, unknown biological function” value was 1.88. For the same molecule, the “Signal Fold Change AT4G12410 auxin-responsive protein” value was 2.76, the “Signal Fold Change AT4G12480 lipid transfer protein” value was 0.20 and the “Signal Fold Change AT4G13210, unknown biological function” value was 0.29. The “Signal Fold Change AT4G15550 UDP-glucose:indole-3-acetate beta-D-glucosyltransferase” value was 0.36, the “Signal Fold Change AT4G15920, unknown biological function” value was 13.52 and the “Signal Fold Change AT4G17220 expressed protein (cytoskeleton organization and biogenesis)” value was 2.49. The “Signal Fold Change AT4G18340 glycosyl hydrolase” value was 2.57, the “Signal Fold Change AT4G23410 senescence-associated protein” value was 1.97 and the “Signal Fold Change AT4G25780, unknown biological function” value was 9.02. For the same molecule, the “Signal Fold Change AT4G26010 peroxidase” value was 0.45, the “Signal Fold Change AT4G28085, unknown biological function” value was 2.86 and the “Signal Fold Change AT4G31000, unknown biological function” value was 0.55. The “Signal Fold Change AT4G32920, unknown biological function” value was 2.39, the “Signal Fold Change AT4G34560, unknown biological function” value was 2.00 and the “Signal Fold Change AT4G34760 auxin-responsive protein” value was 0.20. The “Signal Fold Change AT4G35060 copper chaperone” value was 3.14, the “Signal Fold Change AT4G35150, unknown biological function” value was 0.32 and the “Signal Fold Change AT4G36520, unknown biological function” value was 2.71. For the same molecule, the “Signal Fold Change AT4G37220 stress-responsive protein” value was 7.29, the “Signal Fold Change AT4G38690, signal transduction, 1-phosphatidylinositol” value was 2.55 and the “Signal Fold Change AT4G39210 ADP-glucose pyrophosphorylase” value was 0.44. For the same molecule, the “Signal Fold Change AT4G39800 inositol-3-phosphate synthase isozyme 1” value was 2.16, the “Signal Fold Change AT4G39840, unknown biological function” value was 0.37 and the “Signal Fold Change AT5G01210, unknown biological function” value was 0.33. The “Signal Fold Change AT5G01300, unknown biological function” value was 1.40, the “Signal Fold Change AT5G02260, cell wall organization and biogenesis, expansin (EXP9)” value was 0.16 and the “Signal Fold Change AT5G02540 short-chain dehydrogenase” value was 0.17. The “Signal Fold Change AT5G03160 DNAJ heat shock N-terminal domain-containing protein” value was 1.90, the “Signal Fold Change AT5G04080, unknown biological function” value was 2.48 and the “Signal Fold Change AT5G05180, unknown biological function” value was 1.79. The “Signal Fold Change AT5G06200, unknown biological function” value was 1.94, the “Signal Fold Change AT5G08240, unknown biological function” value was 1.79 and the “Signal Fold Change AT5G08260 serine carboxypeptidase S10 protein” value was 0.50. The “Signal Fold Change AT5G08370 alpha-galactosidase” value was 2.77, the “Signal Fold Change AT5G09980 expressed protein (defense response)” value was 0.35 and the “Signal Fold Change AT5G10720 sensory transduction histidine kinase” value was 0.48. The “Signal Fold Change AT5G11540, unknown biological function” value was 5.32, the “Signal Fold Change AT5G12170, response to cadmium ion, expressed protein” value was 0.36 and the “Signal Fold Change AT5G13870 endo-xyloglucan transferase” value was 0.27. For the same molecule, the “Signal Fold Change AT5G13910 AP2/EREBP-like transcription factor” value was 0.46, the “Signal Fold Change AT5G14780 formate dehydrogenase” value was 0.44 and the “Signal Fold Change AT5G14920 gibberellin-regulated protein” value was 0.35. For the same molecule, the “Signal Fold Change AT5G15290, unknown biological function” value was 2.43, the “Signal Fold Change AT5G15530 biotin carboxyl carrier protein 2” value was 0.54 and the “Signal Fold Change AT5G15830 bZIP transcription factor protein” value was 3.94. The “Signal Fold Change AT5G18470, unknown biological function” value was 0.13, the “Signal Fold Change AT5G18670 beta-amylase” value was 0.50 and the “Signal Fold Change AT5G18860, unknown biological function” value was 2.02. For the same molecule, the “Signal Fold Change AT5G18970, unknown biological function” value was 2.49, the “Signal Fold Change AT5G19890 peroxidase” value was 0.13 and the “Signal Fold Change AT5G19930, unknown biological function” value was 1.64. The “Signal Fold Change AT5G20410 monogalactosyldiacylglycerol synthase” value was 2.77, the “Signal Fold Change AT5G22310, unknown biological function” value was 0.37 and the “Signal Fold Change AT5G22860 serine carboxypeptidase S28 protein” value was 2.63. For the same molecule, the “Signal Fold Change AT5G23750, unknown biological function” value was 3.60, the “Signal Fold Change AT5G24870, unknown biological function” value was 2.16 and the “Signal Fold Change AT5G25140 cytochrome P450” value was 4.21. For the same molecule, the “Signal Fold Change AT5G25160 zinc finger (C2H2 type) protein” value was 2.60, the “Signal Fold Change AT5G25190 ethylene-responsive element-binding protein” value was 0.32 and the “Signal Fold Change AT5G34940, unknown biological function” value was 0.49. The “Signal Fold Change AT5G37300, unknown biological function” value was 3.86, the “Signal Fold Change AT5G38930, unknown biological function” value was 0.33 and the “Signal Fold Change AT5G39860 bHLH protein” value was 2.39. For the same molecule, the “Signal Fold Change AT5G41900 hydrolase” value was 2.67, the “Signal Fold Change AT5G44410, unknown biological function” value was 3.37 and the “Signal Fold Change AT5G44580, unknown biological function” value was 0.22. For the same molecule, the “Signal Fold Change AT5G46890 lipid transfer protein” value was 3.64, the “Signal Fold Change AT5G47240, unknown biological function” value was 3.96 and the “Signal Fold Change AT5G47330 palmitoyl protein thioesterase protein” value was 2.52. For the same molecule, the “Signal Fold Change AT5G47450 major intrinsic protein” value was 2.24, the “Signal Fold Change AT5G47950, unknown biological function” value was 1.93 and the “Signal Fold Change AT5G48490 lipid transfer protein” value was 9.12. For the same molecule, the “Signal Fold Change AT5G48900, unknown biological function” value was 0.55, the “Signal Fold Change AT5G49900, unknown biological function” value was 2.24 and the “Signal Fold Change AT5G50720 ABA-responsive protein (HVA22e)” value was 2.52. The “Signal Fold Change AT5G52120 SKP1 interacting partner 3 protein” value was 5.39, the “Signal Fold Change AT5G53190, unknown biological function” value was 4.35 and the “Signal Fold Change AT5G53830, unknown biological function” value was 0.40. For the same molecule, the “Signal Fold Change AT5G56320, cell wall organization and biogenesis, expansin (EXP14)” value was 3.15, the “Signal Fold Change AT5G58660, unknown biological function” value was 0.34 and the “Signal Fold Change AT5G59540 oxidoreductase” value was 0.44. The “Signal Fold Change AT5G63450 cytochrome P450” value was 6.43, the “Signal Fold Change AT5G63650 serine/threonine protein kinase” value was 0.42 and the “Signal Fold Change AT5G65970 seven transmembrane MLO protein” value was 2.60. For the same molecule, the “Signal Fold Change AT5G66310, microtubule-based movement, kinesin motor protein” value was 0.48, the “Signal Fold Change AT5G66400 dehydrin (RAB18)” value was 1.09 and the “Signal Fold Change AT5G66440, unknown biological function” value was 0.30. The “Signal Fold Change AT5G66460 (1-4)-beta-mannan endohydrolase” value was 0.51 and the “Signal Fold Change AT5G66780, unknown biological function” value was 0.78.
